{"source": "paper PMC6588697", "about": "“Lugdunin amplifies innate immune responses in the skin in synergy with host- and microbiota-derived factors” (Nature Communications, 2019)", "tested_on": "PHKs", "assay": "CXCL8 expression in PHKs (qRT-PCR, normalized to actin)", "format": "cell-based, human", "settings": "for CXCL8 expression normalized to actin / CXCL8 induction by S. epidermidis CM with added peptide: PHKs; for CXCL8 expression normalized to actin / CXCL8 induction by S. epidermidis CM with added peptide / induction of CXCL8 expression in PHKs: 5 h; for induction of CXCL8 expression in PHKs: single treatment, 2 µM human AMPs or lugdunin, 0.8 µM (pro)-gallidermin or nisin", "procedure": "Fig. 1 Lugdunin sensitizes epithelial cells for innate immune defense. a Primary human keratinocytes (PHKs) were pretreated with S. epidermidis conditioned medium (CM), indicated lugdunin concentrations, or the combination of both for 20 h. Subsequently, cells were infected with S. aureus for 1.5 h followed by cell lysis and determination of colony-forming units (CFUs). Shown is one representative experiment of three independent experiments with six technical replicates ± s.e.m. n.s., not significant. b Dorsal skin of mice was pretreated with S. epidermidis CM, 1.5 µg lugdunin alone or in combination with S. epidermidis CM for 24 h. Subsequently, S. aureus CFUs were determined. Horizontal lines represent the mean of each group ± s.e.m. c PHKs were treated with 2 μM lugdunin or with S. epidermidis CM alone or in combination for 20 h and subsequently expression of indicated antimicrobial peptides (AMPs) (respective protein names in brackets) was analyzed and normalized to actin. Shown is one representative experiment of three independent experiments with two technical replicates ± s.e.m. d PHKs were treated with 2 µM lugdunin or 100 ng/mL Pam2Cys for 5 h and subsequently the concentration of indicated cytokines in the supernatant was analyzed by LEGENDplex^TM (BioLegend). Shown is one representative experiment of three independent experiments with two technical replicates ± s.e.m. e PHKs were treated with increasing concentrations of lugdunin or 100 ng/mL Pam2Cys or Pam3Cys for 5 h and subsequently expression of chemokine (C-X-C motif) ligand 8 (CXCL8) was analyzed and normalized to actin. Shown is one representative experiment of three independent experiments, each with two technical replicates ± s.e.m. f, g Indicated cells were treated with 2 µM lugdunin or 100 ng/mL Pam2Cys as a positive control for 5 h and subsequently the concentration of CXCL8 (f) and interleukin-1α (IL-1α) (g) in the supernatant was analyzed by LEGENDplex^TM (BioLegend) and enzyme-linked immunosorbent assay (ELISA) (R&D Systems). Shown is one representative experiment of three independent experiments with two technical replicates ± s.e.m. Significant differences to control treatments were analyzed by ordinary one-way analysis of variance (ANOVA) followed by Dunnett’s multiple comparisons test (*P < 0.05; **P < 0.01; ***P < 0.001; ****P < 0.0001). n.d. = not detected. Source data are provided as a Source Data file\nFig. 4 Lugdunin amplifies the commensal-induced chemokine (C-X-C motif) ligand (CXCL8) induction. a Primary human keratinocytes (PHKs) were either treated with 2 μM of human antimicrobial peptides (AMPs) (black bars) or lugdunin (blue bars), or 0.8 μM (pro)-gallidermin or nisin (black bars), or in combination with S. epidermidis conditioned medium (CM) (gray and red striped bars) for 5 h, and subsequently expression of CXCL8 was analyzed and normalized to actin. Shown is one representative experiment of three independent experiments with two technical replicates ± s.e.m. b PHKs were treated with 2 μM human AMPs, 2 μM lugdunin, 0.8 μM of the other bacteriocins (gray bars) or the correspondent peptide combinations (white bars), or 50 ng/mL Pam2Cys, 10 ng/mL IL-1α, or S. epidermidis CM as controls (black bars), for 5 h and subsequently expression of CXCL8 was analyzed and normalized to actin. Shown is one representative experiment of three independent experiments with two technical replicates ± s.e.m. Significant differences to control treatments were analyzed by ordinary one-way analysis of variance (ANOVA) followed by Dunnett’s multiple comparisons test (***P < 0.001; ****P < 0.0001). Source data are provided as a Source Data file\nAfter 5 h or 20 h of peptide treatment, PHKs were washed once with PBS, followed by the addition of RNA lysis buffer directly into the well. Total RNA was extracted using the Nucleospin RNA Kit (Macherey-Nagel) according to the manufacturer’s protocol. […]", "key": {"[1]": {"settings": "2 µM human AMPs, 2 µM lugdunin, 0.8 µM other bacteriocins or their combinations, 50 ng/mL Pam2Cys, 10 ng/mL IL-1α, S. epidermidis CM, two technical replicates, Fig 4b"}, "[2]": {"settings": "peptide (2 µM human AMPs or lugdunin, 0.8 µM gallidermin or nisin) in combination with S. epidermidis CM, two technical replicates, Fig 4a"}, "[3]": {"settings": "single treatment: 2 µM human AMPs or lugdunin, 0.8 µM (pro)-gallidermin or nisin, or S. epidermidis CM, M = 1, two technical replicates (rows), Fig 4a"}}, "note": "“And” between values parts separate entries of the source, which are not always exact repeats. Equal values may be shown once. No end group written: not given here."}
{"substance": "IASKFLCTPGCAKTGSFNSYCC (also: bicyclic or more (positions not given here)) [Gallidermin, bacteriocin isolated from Staphylococcus gallinarum]", "values": [{"measurement": "CXCL8 expression normalized to actin", "setting": "[1]", "value": "3.22 and 3.395"}, {"measurement": "CXCL8 expression normalized to actin", "setting": "[2]", "value": "2.713 and 2.789"}, {"measurement": "CXCL8 induction by S. epidermidis CM with added peptide", "setting": "Fig 4a", "value": "completely blocked"}, {"measurement": "induction of CXCL8 expression in PHKs", "setting": "S. epidermidis CM, Fig 4a", "value": "not able to induce CXCL8 expression"}]}
{"substance": "ITSISLCTPGCKTGALMGCNMKTATCHCSIHVSK (not fully specified (bridges); also: lanthionine rings, places not given here) [Nisin, bacteriocin of Lactococcus lactis, purchased from Sigma]", "values": [{"measurement": "CXCL8 expression normalized to actin", "setting": "[1]", "value": "3.325 and 3.22"}, {"measurement": "CXCL8 expression normalized to actin", "setting": "[2]", "value": "88.3403 and 93.3773"}, {"measurement": "CXCL8 induction by S. epidermidis CM with added peptide", "setting": "Fig 4a", "value": "non-significant increase"}, {"measurement": "induction of CXCL8 expression in PHKs", "setting": "S. epidermidis CM, Fig 4a", "value": "not able to induce CXCL8 expression"}]}
{"substance": "LLGDFFRKSKEKIGKEFKRIVQRIKDFLRNLVPRTES [LL-37, human cathelicidin AMP]", "values": [{"measurement": "CXCL8 expression normalized to actin", "setting": "[1]", "value": "1.54 and 1.645"}, {"measurement": "CXCL8 expression normalized to actin", "setting": "[2]", "value": "38.5859 and 33.1285"}, {"measurement": "induction of CXCL8 expression in PHKs", "setting": "S. epidermidis CM, Fig 4a", "value": "not able to induce CXCL8 expression"}]}
{"substance": "Lugdunin", "values": [{"measurement": "CXCL8 expression normalized to actin", "setting": "[1]", "value": "43.47 and 44.695"}, {"measurement": "CXCL8 expression normalized to actin", "setting": "lugdunin 0.5 µM, medium = 1, technical replicates, Fig 1e", "value": "1.93 and 1.44 and 0.406 and 0.518"}, {"measurement": "CXCL8 expression normalized to actin", "setting": "lugdunin 1 µM, technical replicates, Fig 1e", "value": "10.23 and 9.29 and 0.973 and 1.087"}, {"measurement": "CXCL8 expression normalized to actin", "setting": "lugdunin 2 µM, technical replicates, Fig 1e", "value": "43.4456 and 47.5424 and 22.549 and 29.548"}, {"measurement": "CXCL8 expression normalized to actin", "setting": "lugdunin 3 µM, technical replicates, Fig 1e", "value": "64.669 and 66.487"}, {"measurement": "CXCL8 expression normalized to actin", "setting": "lugdunin 5 µM, technical replicates, Fig 1e", "value": "11.7628 and 11.128"}, {"measurement": "CXCL8 expression normalized to actin", "setting": "lugdunin 10 µM, technical replicates, Fig 1e", "value": "2.0508 and 6.298"}, {"measurement": "CXCL8 expression normalized to actin", "setting": "[2]", "value": "1093.7 and 1265.07"}, {"measurement": "CXCL8 expression normalized to actin", "setting": "[3]", "value": "44.695 and 43.47"}, {"measurement": "CXCL8 induction by S. epidermidis CM with added peptide", "setting": "Fig 4a", "value": "over 1000 fold"}, {"measurement": "lugdunin concentrations that induced expression and release of CXCL8 in PHKs", "setting": "higher concentrations did not induce CXCL8 production, text to Fig 1d, e", "value": "up to 3 µM"}, {"measurement": "induction of CXCL8 expression in PHKs", "setting": "S. epidermidis CM, Fig 4a", "value": "over 40 fold"}]}
{"substance": "MEAVKEKNELFDLDVKVNAKESNDSGAEPRIASKFLCTPGCAKTGSFNSYCC [Pro-Gallidermin, non-bactericidal pro-form of gallidermin]", "values": [{"measurement": "CXCL8 expression normalized to actin", "setting": "[1]", "value": "3.465 and 3.43"}]}
{"substance": "SSLLEKGLDGAKKAVGGLGKLGKDAVEDLESVGKGAVHDVKDVLDSV [DCD-1, dermcidin-derived human AMP of eccrine sweat glands]", "values": [{"measurement": "CXCL8 expression normalized to actin", "setting": "[1]", "value": "13.37 and 13.02"}, {"measurement": "CXCL8 expression normalized to actin", "setting": "[2]", "value": "61.3666 and 64.6468"}, {"measurement": "CXCL8 expression normalized to actin", "setting": "[3]", "value": "13.02 and 13.37"}, {"measurement": "induction of CXCL8 expression in PHKs", "setting": "S. epidermidis CM, Fig 4a", "value": 10, "unit": "fold"}]}
{"substance": "SSLLEKGLDGAKKAVGGLGKLGKDAVEDLESVGKGAVHDVKDVLDSVL [DCD-1L, dermcidin-derived human AMP of eccrine sweat glands]", "values": [{"measurement": "CXCL8 expression normalized to actin", "setting": "[1]", "value": "2.31 and 2.52"}, {"measurement": "CXCL8 expression normalized to actin", "setting": "[2]", "value": "45.0983 and 49.3507"}, {"measurement": "CXCL8 expression normalized to actin", "setting": "[3]", "value": "2.52 and 2.31"}]}
